The values below come from article PMC6982223, “Design, Synthesis and Molecular Modeling Study of Conjugates of ADP and Morpholino Nucleosides as A Novel Class of Inhibitors of PARP-1, PARP-2 and PARP-3” (International Journal of Molecular Sciences, 2019).

What all share (type): biochemical
Assay [1] has as its target T1, Human recombinant poly(ADP-ribose)-polymerase 1 (Homo sapiens, UniProt P09874).
T1 construct: made in house
In words: autopoly(ADP-ribosyl)ation of PARP-1, [32P]NAD+ incorporation. To be noted: for Residual PARP-1 activity / remaining activity at 1000 µM: in the presence of 1 mM compound; for remaining activity at 1000 µM: read-out: Residual PARP-1 activity (converted); for IC50: autopoly(ADP-ribosyl)ation, 0.3 mM NAD+. The source says: (§1) The oligonucleotides were purchased from Biosset (Novosibirsk, Russia). The reagents, solvents and the basic components of buffers were purchased from Sigma (St. Louis, MO, USA), Acros organics (Waltham, MA, USA) or Promega (Madison, WI, USA). γ–[^32P]-ATP and α–[^32P]-ATP (with specific activities of 5000 and 3000 Ci/mmol, respectively) were from the Laboratory of Biotechnology (Institute of Chemical Biology and Fundamental Medicine, Novosibirsk, Russia). T4 polynucleotide kinase was from Biosan (Novosibirsk, Russia). SUMO fusion expression vector pETHSUL (GenBank: EF205333.1) and pSUPER vector coding for the catalytic domain of the S. cerevisiae SUMO hydrolase dtUD1 were kindly provided by Dr. P. Loll (Drexel University, Philadelphia, USA). His6 and Strep-II double-tagged dtUD1 hydrolase was expressed and purified as described in ref. [81]. Human recombinant poly(ADP-ribose)-polymerase 1 (EC 2.4.2.30) was prepared as described previously. Murine recombinant poly(ADP-ribose)-polymerase 2 (EC 2.4.2.30) was purified as described previously. Plasmid encoding human PARP-3 was kindly provided by Dr. A. Ishchenko (Gustave Roussy, Université Paris-Saclay, France). Poly(ADP-ribose)-polymerase 3 (EC 2.4.2.30) was purified according to [6].
(§2) The reaction of autopoly(ADP-ribosyl)ation was carried out as follows: for PARP-1 50 mM tris-HCl, pH 8.0, 20 mM MgCl2, 150 mM NaCl, and 7 mM β-mercaptoethanol, activated DNA 2 OE/mL, 0.3 mM [^32P] NAD+ at 37 °C. The reaction was initiated by adding PARP-1 to 200 nM and the reaction mixtures were incubated for 1.5 min. For PARP-2: 50 mM tris-HCl, pH 8.0, 3 mM spermin, 150 mM NaCl, and 7 mM β-mercaptoethanol, activated DNA 2 OE/mL, 0.6 mM [^32P] NAD+ at 37 °C. The reaction was initiated by adding PARP-2 to 800 nM and the reaction mixtures were incubated for 5 min. The reaction was stopped by placing 10 μL aliquots onto Whatman 1 paper filters soaked with 5 % TCA. The filters were washed with 5% TCA for four times and dried in air after the removal of TCA with 90% ethanol. The incorporation of radioactivity into the product was calculated with a Tri-Carb 2800 scintillation counter (Perkin Elmer, Waltham, MA, USA) according to the Cherenkov method or using Typhoon FLA 9500 scanner (GE Healthcare, Chicago, IL, USA). To determine the IC50 value of inhibitors (concentration of the compound required reducing the enzyme activity by 50%), we studied the activity of the enzyme at different concentrations of inhibitors. Measurements were done in at least two independent experiments. IC50 values were calculated using the Origin Pro 8.0 software by nonlinear regression analysis.

The target in assay [2] is T2, Murine recombinant poly(ADP-ribose)-polymerase 2 (Mus musculus, UniProt O88554).
T2 construct: made in house
T2 sequence (O88554 whole entry): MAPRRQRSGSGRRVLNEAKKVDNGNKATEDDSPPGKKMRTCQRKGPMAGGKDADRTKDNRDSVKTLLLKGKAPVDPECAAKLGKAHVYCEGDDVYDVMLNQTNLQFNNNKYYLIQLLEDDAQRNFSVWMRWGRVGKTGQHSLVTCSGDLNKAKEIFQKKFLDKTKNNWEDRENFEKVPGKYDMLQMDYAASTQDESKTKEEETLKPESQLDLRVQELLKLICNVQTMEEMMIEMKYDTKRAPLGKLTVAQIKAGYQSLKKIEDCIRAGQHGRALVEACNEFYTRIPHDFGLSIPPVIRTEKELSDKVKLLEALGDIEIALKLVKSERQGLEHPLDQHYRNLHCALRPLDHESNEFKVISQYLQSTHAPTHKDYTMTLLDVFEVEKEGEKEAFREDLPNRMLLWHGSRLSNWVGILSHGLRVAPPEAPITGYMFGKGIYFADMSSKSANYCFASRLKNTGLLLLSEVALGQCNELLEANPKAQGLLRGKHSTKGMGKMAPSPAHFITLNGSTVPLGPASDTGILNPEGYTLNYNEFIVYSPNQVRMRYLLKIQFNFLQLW
In words: autopoly(ADP-ribosyl)ation of PARP-2, [32P]NAD+ incorporation. To be noted: for Residual PARP-2 activity / remaining activity at 1000 µM: in the presence of 1 mM compound; for IC50: autopoly(ADP-ribosyl)ation, 0.6 mM NAD+; for remaining activity at 1000 µM: read-out: Residual PARP-2 activity (converted).
Source text: as §1, §2

Assay [3] has as its target T3, PARP-1 (Homo sapiens, UniProt P09874).
T3 construct: made in house
Briefly: kinetics of PARP-1 inhibition (Km, Vmax, type of inhibition) by fluorescence anisotropy. The procedure: The type of inhibition was determined based on at what stage of the reaction the inhibitor binds to the enzyme (before or after the substrate binding) and where it binds (at the substrate binding site or elsewhere). There are four types of inhibition: competitive, whereby an inhibitor binding occurs at the substrate-binding site; noncompetitive, where an inhibitor binds at the allosteric center; mixed with inhibitor binding at both the active and allosteric center; or uncompetitive under an inhibitor binding to the enzyme-substrate complex. Determination of the type of inhibition is necessary to confirm the computer simulation data and to plan further modifications of the inhibitor structure. The type of inhibition can be determined from the plots of the reaction parameters, such as maximum rates, Vmax and the apparent Michaelis constant, Km, values, versus inhibitor concentration. […] Noncompetitive inhibition leads to a decrease of Vmax and retention of the Km values. Mixed inhibition is a superposition of the first two, and is characterized by a decrease in the reaction rate and an increase in Km values. In the case of uncompetitive inhibition, both […].
To determine the type of inhibition of the studied compounds, the activity of PARP-1 was measured at presence of three different inhibitor concentrations at nine NAD+ substrate concentrations by the fluorescence anisotropy technique. Based on the obtained data, dependence graphs of the initial reaction rate on the substrate concentration were constructed, and reaction parameters such as maximum reaction rate (Vmax) and apparent Michaelis constant (Km) values were found (Tables S3 and S4, Supporting). To determine the type of inhibition, we plotted the dependence graph of Vmax and Km values on the inhibitor concentration using OriginPro 8.6.0 software. (Figure 3). […] Therefore, the results of modeling of the binding type of these compounds in the enzyme’s active center are legitimate.
The determination of the kinetic parameters of inhibition Km and Vmax was carried out as described. In all experiments, the points on the experimental curves represent the average of a minimum three independent experiments.
Background: Polarisation of emitted light reports the rotation of a fluorescent probe.

As a reminder, the IC50 is the concentration that inhibits the measured activity by half.

T3 sequence (P09874 whole entry): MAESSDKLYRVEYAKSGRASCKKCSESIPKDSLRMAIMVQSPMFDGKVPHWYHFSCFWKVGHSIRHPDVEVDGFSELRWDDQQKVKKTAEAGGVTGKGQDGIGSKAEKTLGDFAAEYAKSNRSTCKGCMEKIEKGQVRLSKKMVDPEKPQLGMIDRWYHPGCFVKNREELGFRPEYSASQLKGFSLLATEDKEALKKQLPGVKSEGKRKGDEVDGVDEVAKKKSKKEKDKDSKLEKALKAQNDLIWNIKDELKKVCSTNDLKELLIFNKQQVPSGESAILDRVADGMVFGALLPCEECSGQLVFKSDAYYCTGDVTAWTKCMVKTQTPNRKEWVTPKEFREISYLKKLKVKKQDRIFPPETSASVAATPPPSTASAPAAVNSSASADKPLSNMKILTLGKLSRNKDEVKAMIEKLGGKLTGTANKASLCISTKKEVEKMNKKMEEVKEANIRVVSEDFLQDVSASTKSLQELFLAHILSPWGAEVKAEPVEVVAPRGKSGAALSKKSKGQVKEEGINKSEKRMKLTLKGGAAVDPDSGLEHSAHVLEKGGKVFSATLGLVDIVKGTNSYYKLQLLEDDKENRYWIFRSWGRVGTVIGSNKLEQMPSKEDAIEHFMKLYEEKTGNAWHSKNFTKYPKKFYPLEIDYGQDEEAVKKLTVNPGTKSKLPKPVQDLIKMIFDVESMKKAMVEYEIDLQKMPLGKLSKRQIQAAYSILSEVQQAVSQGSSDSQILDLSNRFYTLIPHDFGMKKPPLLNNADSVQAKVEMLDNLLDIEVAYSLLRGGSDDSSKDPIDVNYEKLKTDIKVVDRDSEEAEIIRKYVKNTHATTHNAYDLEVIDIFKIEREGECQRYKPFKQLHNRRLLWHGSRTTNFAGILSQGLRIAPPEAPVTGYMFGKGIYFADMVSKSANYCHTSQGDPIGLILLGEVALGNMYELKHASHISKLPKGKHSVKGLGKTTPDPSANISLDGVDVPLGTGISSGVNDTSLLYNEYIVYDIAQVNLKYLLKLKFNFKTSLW
T1 sequence (P09874 whole entry): as above

With `Nc1ncnc2c1ncn2[C@@H]1O[C@H](CO)[C@@H](O)[C@H]1O` [Ado, reference compound], the “Residual PARP-1 activity” value in assay [1] is given as 77% ± 21%. In addition, in assay [2], the “Residual PARP-2 activity” value is given as 86% ± 1%.

`NC(=O)c1cccc(N)c1` [Compound 3-AB, 3-aminobenzamide, reference compound]: the Vmax in assay [3] (inhibitor concentration 50 μМ), in assay [3] (inhibitor concentration 100 μМ) and in assay [3] (inhibitor concentration 500 μМ) was 0.16 RFU/sec in each case.

Consider `Nc1ncnc2c1ncn2C1CNCC(COP(=O)(O)OP(=O)(O)OCC2OC(n3cnc4c(N)ncnc43)C(O)C2O)O1` (centres unmarked) [Compound 4A], for which the remaining activity at 1000 µM in assay [1] is 80%. For the same compound, the 50% inhibitory concentration (IC50) in assay [2] is 421 ± 6 µM.

`Nc1ncnc2c1ncn2C1OC(COP(=O)(O)OP(=O)(O)OCC2CNCC(n3cc(Br)c(=O)[nH]c3=O)O2)C(O)C1O` (centres unmarked) [Compound 4BrU]: in assay [1], the remaining activity at 1000 µM is 36%. Besides, the IC50 in assay [2] was 474 µM.

`Nc1ccn(C2CNCC(COP(=O)(O)OP(=O)(O)OCC3OC(n4cnc5c(N)ncnc54)C(O)C3O)O2)c(=O)n1` (centres unmarked) [Compound 4C]: the figures for the remaining activity at 1000 µM in assay [1] and in assay [2] were 96% and 66%, respectively.

With `Nc1ncnc2c1ncn2C1OC(COP(=O)(O)OP(=O)(O)OCC2CNCC(n3cc(Cl)c(=O)[nH]c3=O)O2)C(O)C1O` (centres unmarked) [Compound 4ClU], the remaining activity at 1000 µM is 57.5% in assay [1] and 46.8% in assay [2].

As to `Nc1nc2c(ncn2C2CNCC(COP(=O)(O)OP(=O)(O)OCC3OC(n4cnc5c(N)ncnc54)C(O)C3O)O2)c(=O)[nH]1` (centres unmarked) [Compound 4G], the remaining activity at 1000 µM was 45.5% in assay [1] and 34% in assay [2].

Turning to `Nc1ncnc2c1ncn2C1OC(COP(=O)(O)OP(=O)(O)OCC2CNCC(n3cc(I)c(=O)[nH]c3=O)O2)C(O)C1O` (centres unmarked) [Compound 4IU], the concentration for half-maximal inhibition (IC50) in assay [1] is 255 µM; in assay [2], 160 µM. In addition, in assay [3] (PARP-1 catalyzed reaction, versus NAD+), the type of inhibition result is listed as “mixed inhibitor”. For the same compound, the Vmax in assay [3] (inhibitor concentration 50 μМ) is recorded as 0.16 RFU/sec; in assay [3] (inhibitor concentration 100 μМ), 0.15 RFU/sec; in assay [3] (inhibitor concentration 500 μМ) it was 0.14 RFU/sec.

For the compound `Cc1cn(C2CNCC(COP(=O)(O)OP(=O)(O)OCC3OC(n4cnc5c(N)ncnc54)C(O)C3O)O2)c(=O)[nH]c1=O` (centres unmarked) [Compound 4T], the remaining activity at 1000 µM in assay [1] is 40%. Moreover, the IC50 in assay [2] is 474 µM.

For the compound `Nc1ncnc2c1ncn2C1OC(COP(=O)(O)OP(=O)(O)OCC2CNCC(n3ccc(=O)[nH]c3=O)O2)C(O)C1O` (centres unmarked) [Compound 4U], the remaining activity at 1000 µM in assay [1] is 93%; in assay [2] it was 67%.

For the compound `O=c1[nH]c(=O)n([C@@H]2O[C@H](CO)[C@@H](O)[C@H]2O)cc1Br` [Compound 5-Br-Urd, 5-Br-uridine, reference compound], the IC50 in assay [1] came to 244 ± 83 µM; in assay [2], 190 ± 16 µM.

For `O=c1[nH]c(=O)n([C@@H]2O[C@H](CO)[C@@H](O)[C@H]2O)cc1Cl` [Compound 5-Cl-Urd, 5-Cl-uridine, reference compound], the “Residual PARP-1 activity” value in assay [1] is 82% ±17%. For the same compound, the IC50 in assay [2] stood at 196 ± 25 µM.

As for `O=c1[nH]c(=O)n([C@@H]2O[C@H](CO)[C@@H](O)[C@H]2O)cc1I` [Compound 5-I-Urd, 5-I-uridine, reference compound], the IC50 was 49 ± 9 µM in assay [1] and 26.5 ± 3.5 µM in assay [2].

`Nc1ncnc2c1ncn2C1OC(COP(=O)(O)OP(=O)(O)NCC2CNCC(n3cc(Br)c(=O)[nH]c3=O)O2)C(O)C1O` (centres unmarked) [Compound 10BrU]: the remaining activity at 1000 µM in assay [1] was 60%. Besides, the IC50 in assay [2] was 254 µM.

Take `Nc1ccn(C2CNCC(CNP(=O)(O)OP(=O)(O)OCC3OC(n4cnc5c(N)ncnc54)C(O)C3O)O2)c(=O)n1` (centres unmarked) [Compound 10C]: the remaining activity at 1000 µM in assay [1] is 87.5%; in assay [2], 34.5%.

With `Nc1ncnc2c1ncn2C1OC(COP(=O)(O)OP(=O)(O)NCC2CNCC(n3cc(Cl)c(=O)[nH]c3=O)O2)C(O)C1O` (centres unmarked) [Compound 10ClU], the remaining activity at 1000 µM in assay [1] was 46%; in assay [2], 47%.

Take `Nc1nc2c(ncn2C2CNCC(CNP(=O)(O)OP(=O)(O)OCC3OC(n4cnc5c(N)ncnc54)C(O)C3O)O2)c(=O)[nH]1` (centres unmarked) [Compound 10G]: in assay [1], the remaining activity at 1000 µM was 74%. Also, the IC50 in assay [2] is 224 µM.

For the compound `Cc1cn(C2CNCC(CNP(=O)(O)OP(=O)(O)OCC3OC(n4cnc5c(N)ncnc54)C(O)C3O)O2)c(=O)[nH]c1=O` (centres unmarked) [Compound 10T], the IC50 in assay [1] was 220 µM; in assay [2] it was 136 µM.

In the case of `Nc1ncnc2c1ncn2C1OC(COP(=O)(O)OP(=O)(O)NCC2CNCC(n3ccc(=O)[nH]c3=O)O2)C(O)C1O` (centres unmarked) [Compound 10U], the values for the remaining activity at 1000 µM in assay [1] and in assay [2] were 89% and 33%, respectively.

In the case of `Nc1ncnc2c1ncn2[C@H]1CNC[C@@H](CO)O1` [Compound 11A], the results for the remaining activity at 1000 µM in assay [1] and in assay [2] were 82% and 90%, respectively.

In the case of `O=c1[nH]c(=O)n([C@H]2CNC[C@@H](CO)O2)cc1Br` [Compound 11BrU], the results for the IC50 in assay [1] and in assay [2] were 61 ± 16 µM and 210 ± 48 µM, respectively.

Regarding `Nc1ccn([C@H]2CNC[C@@H](CO)O2)c(=O)n1` [Compound 11C], the remaining activity at 1000 µM in assay [2] is 58%.

Turning to `O=c1[nH]c(=O)n([C@H]2CNC[C@@H](CO)O2)cc1Cl` [Compound 11ClU], the IC50 in assay [1] stood at 233 ± 25 µM; in assay [2], 378 µM.

Turning to `Nc1nc2c(ncn2[C@H]2CNC[C@@H](CO)O2)c(=O)[nH]1` [Compound 11G], the remaining activity at 1000 µM in assay [2] was 64%.

Consider `Cc1cn([C@H]2CNC[C@@H](CO)O2)c(=O)[nH]c1=O` [Compound 11T], for which the IC50 is 148 ± 53 µM in assay [1] and 114 ± 32 µM in assay [2].

For `O=c1ccn([C@H]2CNC[C@@H](CO)O2)c(=O)[nH]1` [Compound 11U], the values for the remaining activity at 1000 µM in assay [1] and in assay [2] were 91% and 97%, respectively.

For `Nc1ccn([C@@H]2O[C@H](CO)[C@@H](O)[C@H]2O)c(=O)n1` [Cyd, reference compound], in assay [1], the “Residual PARP-1 activity” value is on record as 81% ± 16%. For the same compound, in assay [2], the “Residual PARP-2 activity” value is 85% ± 4%.

On to `Nc1nc2c(ncn2[C@@H]2O[C@H](CO)[C@@H](O)[C@H]2O)c(=O)[nH]1` [Guo, reference compound], for which, in assay [1], the “Residual PARP-1 activity” value was 60% ± 13%. In addition, the “Residual PARP-2 activity” value in assay [2] is given as 46% ± 25%.

Turning to `O=c1ccn([C@@H]2O[C@H](CO)[C@@H](O)[C@H]2O)c(=O)[nH]1` [Urd, reference compound], in assay [2], the “Residual PARP-2 activity” value is listed as 96% ± 10%.

For `Cc1cn([C@@H]2O[C@H](CO)[C@@H](O)[C@H]2O)c(=O)[nH]c1=O` [rThd, reference compound], the values for the IC50 in assay [1] and in assay [2] were 277 ± 107 µM and 330 ± 61 µM, respectively.
